System: central benzodiazepine receptors
Assay: Central benzodiazepine receptor binding (test of Speth et al.)
Settings: 1000 nM of the compound
Experimental: Compounds of the invention were assessed for their binding to the benzodiazepine receptor by the test of Speth et al. [Life Sci. 24, 351 (1979)] for central benzodiazepine receptors and LeFur et al. [Life Sci. 33, 449 (1983)] for peripheral receptors. The compounds were tested first at 1.0E-09, 1.0E-07 and 1.0E-05 M in single determination. […] The specific ligand binding to the receptor is defined as the difference between the total binding and the nonspecific binding determined in the presence of an excess of unlabelled ligand. In each experiment, the respective reference compound was tested concurrently with the test compounds in order to assess the assay suitability. It was tested at several concentrations (for IC50 value determination), and the data were compared with historical values. The assay was rendered valid if suitability criteria were met.
BZD central binding data for the compounds is provided in Table 3, wherein is provided the percent inhibition of central BZD in the presence of 1000 nM of the compound.

Row | Structure (SMILES) | % Inhibition at 1000 nM for CBZD
1 | Cc1ccc2nc(-c3ccc(F)cc3)c(CNc3nc(F)cc(F)n3)n2c1 [Compound 166, 4,6-difluoro-N-((2-(4-fluorophenyl)-6-methylimidazo[1,2-a]pyridin-3-yl)methyl)pyrimidin-2-amine] | ++ (percentage of inhibition of central BZD site binding is greater than 80% in the presence of 1000 nM of the compound)
2 | Cc1ccc(-c2nc3ccc(C)cn3c2CN2C(=O)OC(C)(C)C2=O)cc1 [Compound 101, 5,5-dimethyl-3-((6-methyl-2-p-tolylH-imidazo[1,2-a]pyridin-3-yl)methyl)oxazolidine-2,4-dione] | ++ (percentage of inhibition of central BZD site binding is greater than 80% in the presence of 1000 nM of the compound)
3 | Fc1cc(F)nc(NCc2c(-c3ccc(Cl)cc3)nc3ccccn23)n1 [Compound 167, N-((2-(4-chlorophenyl)imidazo[1,2-a]pyridin-3-yl)methyl)-4,6-difluoropyrimidin-2-amine] | ++ (percentage of inhibition of central BZD site binding is greater than 80% in the presence of 1000 nM of the compound)
4 | Cc1ccc(-c2nc3ccc(C)cn3c2Cn2cnc3ccccc32)cc1 [Compound 16, 1-((6-Methyl-2-p-tolyl-H-imidazo[1,2-a]pyridin-3-yl)methyl)-1H-benzo[d]imidazole] | ++ (percentage of inhibition of central BZD site binding is greater than 80% in the presence of 1000 nM of the compound)
5 | CCOC(=O)c1cn(Cc2c(-c3ccc(Cl)cc3)nc3ccccn23)c(=O)[nH]c1=O [Compound 126, Ethyl 1-((2-(4-chlorophenyl)imidazo[1,2-a]pyridin-3-yl)methyl)-2,4-dioxo-1,2,3,4-tetrahydropyrimidine-5-carboxylate] | − (percentage of inhibition of central BZD site binding is less than 50% in the presence of 1000 nM of the compound)
6 | CNC(=O)c1nc2ccccc2n1Cc1c(-c2ccc(Cl)cc2)nc2ccccn12 [Compound 36, 1-((2-(4-chlorophenyl)imidazo[1,2-a]pyridin-3-yl)methyl)-N-methyl-1H-benzo[d]imidazole-2-carboxamide] | + (percentage of inhibition of central BZD site binding is greater than 50% but less than 80% in the presence of 1000 nM of the compound)
7 | Fc1cc(F)nc(NCc2c(-c3ccccc3)nc3ccccn23)n1 [Compound 164, 4,6-difluoro-N-((2-phenylimidazo[1,2-a]pyridin-3-yl)methyl)pyrimidin-2-amine] | ++ (percentage of inhibition of central BZD site binding is greater than 80% in the presence of 1000 nM of the compound)
8 | COC(=O)C1Cc2ccccc2N1Cc1c(-c2ccc(Cl)cc2)nc2ccccn12 (centres unmarked) [Compound 35, Methyl 1-((2-(4-chlorophenyl)imidazo[1,2-a]pyridin-3-yl)methyl)indoline-2-carboxylate] | + (percentage of inhibition of central BZD site binding is greater than 50% but less than 80% in the presence of 1000 nM of the compound)
9 | Cc1ccc(-c2nc3ccc(C)cn3c2CSc2nncs2)cc1 [Compound 180, 6-Methyl-3-([1,3,4]thiadiazol-2-ylsulfanylmethyl)-2-p-tolyl-imidazo[1,2-a]pyridine] | ++ (percentage of inhibition of central BZD site binding is greater than 80% in the presence of 1000 nM of the compound)
10 | CSc1nsc(=S)n1Cc1c(-c2ccc(C)cc2)nc2ccc(C)cn12 [Compound 129, 3-Methylsulfanyl-4-(6-methyl-2-p-tolyl-imidazo[1,2-a]pyridin-3-ylmethyl)-4H-[1,2,4]thiadiazole-5-thione] | ++ (percentage of inhibition of central BZD site binding is greater than 80% in the presence of 1000 nM of the compound)
11 | Fc1ccc(-c2nc3ccccn3c2Cn2ccnn2)cc1 [Compound 48, 3-((1H-1,2,3-triazol-1-yl)methyl)-2-(4-fluorophenyl)H-imidazo[1,2-a]pyridine] | ++ (percentage of inhibition of central BZD site binding is greater than 80% in the presence of 1000 nM of the compound)
12 | Cc1ccc(-c2nc3ccc(C)cn3c2CON2C(=O)c3ccccc3C2=O)cc1 [Compound 173, 2-((6-methyl-2-p-tolylH-imidazo[1,2-a]pyridin-3-yl)methoxy)isoindoline-1,3-dione] | ++ (percentage of inhibition of central BZD site binding is greater than 80% in the presence of 1000 nM of the compound)
13 | Cc1ccc(-c2nc3ccc(C)cn3c2Cn2ccnc2C(=O)N(C)C)cc1 [Compound 71, N,N-Dimethyl-1-((6-methyl-2-p-tolylH-imidazo[1,2-a]pyridin-3-yl)methyl)-1H-imidazole-2-carboxamide] | + (percentage of inhibition of central BZD site binding is greater than 50% but less than 80% in the presence of 1000 nM of the compound)
14 | COC(=O)c1cn(Cc2c(-c3ccc(Cl)cc3)nc3ccccn23)c2ccccc12 [Compound 38, Methyl 1-((2-(4-chlorophenyl)imidazo[1,2-a]pyridin-3-yl)methyl)-1H-indole-3-carboxylate] | ++ (percentage of inhibition of central BZD site binding is greater than 80% in the presence of 1000 nM of the compound)
15 | CCC1=C(C)CN(Cc2c(-c3ccc(C)cc3)nc3ccc(C)cn23)C1=O [Compound 93, 3-ethyl-4-methyl-1-((6-methyl-2-p-tolyl-H-imidazo[1,2-a]pyridin-3-yl)methyl)-1H-pyrrol-2(5H)-one] | ++ (percentage of inhibition of central BZD site binding is greater than 80% in the presence of 1000 nM of the compound)
16 | Cc1ccc(-c2nc3ccc(C)cn3c2Cn2ncnc2C(N)=O)cc1 [Compound 69, 2-(6-Methyl-2-p-tolyl-imidazo[1,2-a]pyridin-3-ylmethyl)-2H-[1,2,4]triazole-3-carboxylic acid amide] | ++ (percentage of inhibition of central BZD site binding is greater than 80% in the presence of 1000 nM of the compound)
17 | CN1CCN(c2cc(Cc3c(-c4ccc(Cl)cc4)nc4ccccn34)ncn2)CC1 [Compound 244, 2-(4-chlorophenyl)-3-((6-(4-methylpiperazin-1-yl)pyrimidin-4-yl)methyl)imidazo[1,2-a]pyridine] | ++ (percentage of inhibition of central BZD site binding is greater than 80% in the presence of 1000 nM of the compound)
18 | Clc1ccc(-c2nc3ccc(Cl)cn3c2Cn2cncn2)cc1 [Compound 18, 3-((1H-1,2,4-triazol-1-yl)methyl)-6-chloro-2-(4-chlorophenyl)H-imidazo[1,2-a]pyridine] | ++ (percentage of inhibition of central BZD site binding is greater than 80% in the presence of 1000 nM of the compound)
19 | CCOC(=O)c1cc2ccccc2n1Cc1c(-c2ccc(Cl)cc2)nc2ccccn12 [Compound 37, Ethyl 1-((2-(4-chlorophenyl)imidazo[1,2-a]pyridin-3-yl)methyl)-1H-indole-2-carboxylate] | − (percentage of inhibition of central BZD site binding is less than 50% in the presence of 1000 nM of the compound)
20 | O=C1CCN1Cc1c(-c2ccc(Cl)cc2)nc2ccc(Cl)cn12 [Compound 113, 1-[6-Chloro-2-(4-chloro-phenyl)-imidazo[1,2-a]pyridin-3-ylmethyl]-azetidin-2-one] | ++ (percentage of inhibition of central BZD site binding is greater than 80% in the presence of 1000 nM of the compound)
21 | O=c1ccccn1Cc1c(-c2ccc(Cl)cc2)nc2ccc(Cl)cn12 [Compound 104, 1-((6-chloro-2-(4-chlorophenyl)H-imidazo[1,2-a]pyridin-3-yl)methyl)pyridin-2(1H)-one] | ++ (percentage of inhibition of central BZD site binding is greater than 80% in the presence of 1000 nM of the compound)
22 | Cc1nc(Cc2c(-c3ccc(F)cc3)nc3ccc(F)cn23)no1 [Compound 201, 3-((6-fluoro-2-(4-fluoropnyl)imidazo[1,2-a]pyridin-3-yl)methyl)-5-methyl-1,2,4-oxadiazole] | ++ (percentage of inhibition of central BZD site binding is greater than 80% in the presence of 1000 nM of the compound)
23 | Cc1ccc(-c2nc3ccc(C)cn3c2Cn2ccnc2)cc1 [Compound 1, 3-((1H-imidazol-1-yl)methyl)-6-methyl-2-p-tolylimidazo[1,2-a]pyridine] | ++ (percentage of inhibition of central BZD site binding is greater than 80% in the presence of 1000 nM of the compound)
24 | COC(=O)c1ncnn1Cc1c(-c2ccc(C)cc2)nc2ccc(C)cn12 [Compound 10, 2-(6-Methyl-2-p-tolyl-imidazo[1,2-a]pyridin-3-ylmethyl)-2H-[1,2,4]triazole-3-carboxylic acid methyl ester] | ++ (percentage of inhibition of central BZD site binding is greater than 80% in the presence of 1000 nM of the compound)
25 | O=c1ccc(Cl)cn1Cc1c(-c2ccc(Cl)cc2)nc2ccc(Cl)cn12 [Compound 108, 5-chloro-1-((6-chloro-2-(4-chlorophenyl)H-imidazo[1,2-a]pyridin-3-yl)methyl)pyridin-2(1H)-one] | ++ (percentage of inhibition of central BZD site binding is greater than 80% in the presence of 1000 nM of the compound)
26 | O=c1ccccn1Cc1c(-c2ccc(Cl)cc2)nc2ccc(F)cn12 [Compound 122, 1-((2-(4-chlorophenyl)-6-fluoroimidazo[1,2-a]pyridin-3-yl)methyl)pyridin-2(1H)-one] | ++ (percentage of inhibition of central BZD site binding is greater than 80% in the presence of 1000 nM of the compound)

— patent publication US8497278B2, “Imidazo[1,2-a]pyridine compounds” (priority 2008, dated 2013)
